Test results taken from patent publication US10806794B2, “Protease inhibitors having enhanced features” (priority 2008, dated 2020).
“And” between values parts separate entries of the source, which are not always exact repeats. Equal entries are not always repeated. Where two headings read alike, the source gives them in different places.

How the values were obtained:
CEM-SS cells [1] = assay: Post-exposure assay: toxicity in CEM-SS cells
Procedure: (§1) The effects of pre- and post-infection PI treatment on CEM-SS toxicity were assessed. […] Cell toxicity was monitored six days after infection using XTT reagent. In the post-exposure assay, test compounds were added to cells 0, 24, 48, or 72 h after HIV-1 infection, and cell viability was measured six days post-infection.

HIV-1 virions = assay: Infectivity of HIV-1 virions from treated cells on naive CEM-SS cells; format: cell-based
Procedure: In concert with p24 analysis, cell supernatants collected from cells exposed to test compounds at 8, 16, or 24 hours post-infection were used to infect naïve CEM-SS cells. Cell viability was measured six days post-infection as a measure of virus infectivity (Table 5).

CEM-SS cells [2] = assay: Pre-exposure assay: toxicity in CEM-SS cells
Procedure: as §1

HIV-1RF [3] = assay: Pre-exposure assay: CEM-SS cells treated before HIV-1RF infection, cell viability; format: cell-based; settings: for EC50: Human immunodeficiency virus 1, CEM-SS
Procedure: as §1

HIV-1RF [4] = assay: Post-exposure assay: compounds added after HIV-1 infection of CEM-SS cells, cell viability; format: cell-based; settings: Human immunodeficiency virus 1, CEM-SS
Procedure: as §1

HIV-1RF [5] = assay: p24 levels after single high MOI HIV-1RF infection of CEM-SS cells, time of addition; format: cell-based; settings: 1 μM
Procedure: The cytoprotective effect against HIV of the PEG-protease inhibitor conjugates was evaluated during a single round of high multiplicity of infection (“MOI”) HIV-1 infection in CEM-SS cells. CEM-SS cells were incubated for one hour with a single high MOI dose of HIV-1RF. Cells were washed to remove free virus, then test compounds were added to cells at 0, 2, 4, 6, 8, 16, or 24 hours after HIV-1 infection. To monitor viral replication, cell supernatants were analyzed at 30 hours post-infection for levels of the HIV capsid protein p24 (FIG. 1). […] Nevirapine inhibited viral replication at 1 μM when added to cells up to four hours post-infection, and at 10 μM when added up to eight hours post-infection.

human hepatocytes = assay: Metabolic stability in cryopreserved human hepatocytes; settings: human hepatocytes
Procedure: (§2) Metabolism of PI conjugates was investigated by monitoring the levels of unmetabolized parent compound following incubation with cryopreserved human or monkey hepatocytes. The use of whole hepatocytes rather than microsomes requires that the drugs cross the cell membrane to interact with intracellularly-localized metabolic enzymes, and thus provides the most relevant in vitro system for understanding overall metabolic stability of these compounds.
(§3) Test compounds (0.1 μM or 3 μM, as indicated) are incubated with cryopreserved human hepatocytes at a cell density of 0.5×10^6 viable cells/mL. […] Duplicate samples (50 μL) are removed from the incubation mixture at various timepoints up to four hours (for 0.1 μM test compound concentration), or one or two hours (for 3 μM test compound concentration), and the reaction is quenched by the addition of methanol containing internal standard (100 μL). The samples are centrifuged (2500 rpm at 4° C. for 20 min), and the supernatants at each time point pooled for cassette analysis by LC-MS/MS.

HIV-1RF [6] = assay: Anti-HIV cytoprotection in CEM-SS cells infected with HIV-1RF (XTT); format: cell-based; settings: six days, XTT; read-out: CEM-SS/HIV-1RF EC50 ± SD
Procedure: (§4) To evaluate whether conjugated protease inhibitors retain the ability to protect against HIV-1 infection, CEM-SS cells infected with the RF strain of HIV-1 were treated with test compounds for six days, and then cell viability was monitored using the tetrazolium dye XTT. […] A value for Therapeutic Index (TI) was calculated as TC50/EC50.

CYP2D6 = CYP2D6 (Homo sapiens (Human), UniProt P10635); assay: Metabolic stability in CYP2D6-expressing Bactosomes; format: in vitro ADME; settings: 5 μM
Chain of CYP2D6 (P10635 whole entry, canonical isoform): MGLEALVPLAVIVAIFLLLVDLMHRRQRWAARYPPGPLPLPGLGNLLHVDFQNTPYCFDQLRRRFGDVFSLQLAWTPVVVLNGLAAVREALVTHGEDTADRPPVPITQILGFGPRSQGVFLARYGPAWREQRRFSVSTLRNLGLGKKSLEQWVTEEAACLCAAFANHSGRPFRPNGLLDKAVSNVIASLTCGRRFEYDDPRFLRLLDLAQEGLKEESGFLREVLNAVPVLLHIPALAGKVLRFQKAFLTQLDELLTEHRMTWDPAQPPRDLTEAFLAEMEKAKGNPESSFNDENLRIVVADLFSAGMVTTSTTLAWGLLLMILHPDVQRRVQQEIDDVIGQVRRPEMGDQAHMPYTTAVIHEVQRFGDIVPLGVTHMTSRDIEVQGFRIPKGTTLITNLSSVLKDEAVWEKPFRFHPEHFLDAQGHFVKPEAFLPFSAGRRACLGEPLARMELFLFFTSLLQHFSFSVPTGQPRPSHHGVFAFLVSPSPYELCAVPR
Procedure: (§5) Compounds were evaluated for their propensity to act as substrates of individual human cytochrome P450 enzymes using a bacterial membrane preparation co-expressing human NADPH-cytochrome P450 reductase with either human CYP3A4 or CYP2D6 (Bactosomes™ Cypex, Ltd., Dundee, UK). In vitro metabolism studies using Bactosomes™ expressing individual human CYP isoforms monitor the extent to which a test compound is metabolized by a single CYP450 enzyme and allow identification of the CYP isoforms that may be responsible for the metabolism of a test compound. Timecourse analyses of test molecules (5 μM) with CYP2D6- or CYP3A4-expressing Bactosomes™ (100 pmol/mL) are performed in buffer (0.1 M phosphate, pH 7.4) in a final reaction volume of 25 μL. […] Reactions are terminated by the addition of methanol (50 μL) containing internal standard at 0, 5, 15, 30, and 45 minutes.

[7] = Metabolic stability in human liver microsomes; settings: human liver microsomes, 3 μM
Procedure: The human liver microsome-mediated biotransformation of PEG-PI compounds was determined by monitoring the loss of the substrate as a function of time. […] Test compounds (3 μM final concentration) were preincubated with pooled (male and female) human liver microsomes (0.5 mg/mL final protein concentration) in buffer (0.1M phosphate buffer, pH 7.4) at 37° C. Reactions were initiated by the addition of NADPH (1 mM final concentration), and allowed to continue for 0, 5, 15, 30, and 45 minutes. […] Sample supernatants are analyzed by liquid chromatography-tandem mass spectrometry.

human plasma proteins = assay: Plasma protein binding by equilibrium dialysis, human plasma; format: in vitro ADME; settings: human plasma, 5 μM, fraction unbound
Procedure, shortened: (§6)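 Test compound solutions (5 μM, final DMSO 0.5%) are made in buffer and in plasma of the relevant species. Plasma solution goes on one membrane side, plasma-free solution on the other. After 2 h at 37 °C, both sides are analysed by LC-MS/MS.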

Caco-2 cells = assay: Bi-directional permeability in Caco-2 monolayers; settings: Caco-2 monolayers, apical to basolateral
Procedure: Absorption properties of various compounds were measured using bi-directional permeability assays in Caco-2 cells. […] The efflux ratio is calculated as the ratio of the Papp(B→A)/Papp(A→B).

[8] = system: human liver microsomal proteins; assay: Microsomal protein binding by equilibrium dialysis; format: in vitro ADME; settings: human liver microsomes, 3 μM, fraction unbound
Procedure: (§7) PEGylated protease inhibitors were evaluated for their propensity to be bound by proteins in normal human plasma or in human liver microsome preparations using equilibrium dialysis analysis. For microsomal protein binding, test compound (final concentration=3 μM) was diluted into either buffer alone or buffer containing human liver microsomes. The protein-free and microsome-containing solutions were then added to either side of an equilibrium dialysis system and allowed to reach equilibrium at 37° C. The concentration of compound on both sides of the membrane at equilibrium was quantified by LC-MS/MS, and the fraction of compound that remains unbound (Fu) is calculated.

CYP3A4 [9] = target: T1, CYP3A4 (Homo sapiens (Human), UniProt P08684); assay: Metabolic stability in CYP3A4-expressing Bactosomes; format: in vitro ADME; settings: 5 μM
T1 sequence (P08684 whole entry): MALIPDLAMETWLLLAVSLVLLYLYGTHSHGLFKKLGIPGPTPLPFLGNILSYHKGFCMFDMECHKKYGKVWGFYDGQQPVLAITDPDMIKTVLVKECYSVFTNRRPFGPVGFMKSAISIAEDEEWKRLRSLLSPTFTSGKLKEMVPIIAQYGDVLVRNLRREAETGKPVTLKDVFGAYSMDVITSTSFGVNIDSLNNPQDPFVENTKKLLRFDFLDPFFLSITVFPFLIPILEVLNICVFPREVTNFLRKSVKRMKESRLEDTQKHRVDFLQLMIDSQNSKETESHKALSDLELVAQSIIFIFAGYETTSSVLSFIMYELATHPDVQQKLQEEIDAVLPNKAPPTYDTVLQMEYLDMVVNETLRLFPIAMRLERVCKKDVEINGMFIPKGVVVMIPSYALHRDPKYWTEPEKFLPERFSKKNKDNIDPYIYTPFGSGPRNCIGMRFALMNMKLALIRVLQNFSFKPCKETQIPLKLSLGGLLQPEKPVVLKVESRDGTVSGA
Procedure: as §5

CYP3A4 [10] = target: T1, CYP3A4; assay: CYP450 inhibition in human liver microsomes: CYP3A4;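 further: incubation at 37 °C started by adding 1 mM NADPH, with formation of the probe metabolite measured via LC-MS/MS or fluorescent detection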
HIV-1 HT/92/599 = assay: HIV-1 reverse transcriptase activity after infection of fresh human PBMCs; format: cell-based; settings: read-out: PBMC/HIV-1HT/92/599 EC50 ± SD; seven days, reverse transcriptase activity
Procedure: (§8) Fresh human peripheral blood mononuclear cells (PBMCs) obtained from a commercial source were purified following centrifugation using a Ficoll-Hypaque density gradient. Viable cells were induced to proliferate in the presence of PHA-P and recombinant human IL-2 for 72 hours. […] Cell supernatant containing HIV-1 viral was incubated for 90 minutes at 37° C. with a reaction mixture containing EGTA, Triton X-100, Tris (pH 7.4), DTT, MgCl2, poly rA, oligo dT, and tritiated thymidine triphosphate (TTP). Incorporation of TTP into DNA was monitored by spotting the reaction mixture onto a DEAE filter mat, followed by washes with 5% phosphate buffer, distilled water, and 70% ethanol, and subsequent drying of the mat. Radioactivity was measured using a Wallac 1450 Microbeta Trilux liquid scintillation counter using Opti-Fluor O. Test compound-associated toxicity was measured in PBMCs cultured for seven days in the absence of virus using XTT reagent. […] TI was calculated as TC50/EC50.

PBMCs = assay: Toxicity in PBMCs cultured without virus (XTT)
Procedure: as §8, with “mat.” for “mat. Radioactivity was measured using a Wallac 1450 Microbeta Trilux liquid scintillation counter using Opti-Fluor O. Test compound-associated toxicity was measured in PBMCs cultured for seven days in the absence of virus using XTT reagent.”

[11] = Metabolic stability in cryopreserved human hepatocytes; settings: human, hepatocytes
Procedure: as §2, §3

[12] = Plasma protein binding by equilibrium dialysis, human plasma; format: in vitro ADME; settings: human plasma, 5 μM, fraction unbound; read-out: Plasma Protein Binding Fu ± SD
Procedure, shortened: as §6

[13] = Microsomal protein binding by equilibrium dialysis; format: in vitro ADME; settings: human liver microsomes, read-out: Microsomal Protein Binding Fu ± SD
Procedure: as §7

CEM-SS cells [14] = settings: absence of viral infection
Procedure: as §4

[15] = target: recombinant HIV-1 protease (Human immunodeficiency virus type 1 group M subtype B (isolate HXB2) (HIV-1), UniProt P04585); assay: Enzyme inhibition of purified HIV-1 protease (SensoLyte 520 HIV-Protease Assay Kit); format: biochemical; settings: read-out: IC50 ± SD
Procedure: Protease inhibitors (PI) are used to treat HIV infection by preventing viral assembly and maturation through the inhibition of HIV-1 protease activity. Biochemical assays were performed to evaluate the potential of PEG-PI conjugates to inhibit HIV-1 protease activity, relative to their respective PI parent molecules. Activity assays were performed at using the SensoLyte 520 HIV-Protease Assay Kit (Anaspec Inc., San Jose, Calif.) and recombinant HIV-1 protease. Protease activity was monitored by the formation of a fluorescent reporter product generated during HIV-1 protease-mediated digestion of a quenched, fluorimetric substrate containing the p17/p24 Pr^gag cleavage site.

[16] = read-out: CYP3A4 IC50 Midazolam, probe substrate midazolam
[17] = read-out: CYP3A4 IC50 Testosterone, probe substrate testosterone

## Cc1ccnc2c1NC(=O)c1cccnc1N2C1CC1 [Nevirapine]
CEM-SS cells [1]; drug addition 0 h post-infection
  TC50: >1000 nM
CEM-SS cells [1]; drug addition 24 h post-infection
  TC50: >1000 nM
CEM-SS cells [1]; drug addition 48 h post-infection
  TC50: >1000 nM
CEM-SS cells [1]; drug addition 72 h post-infection
  TC50: >1000 nM
HIV-1 virions; 0.1 μM, added 8 h post-infection
  Percent Infectivity of HIV-1 Virions in comparison to virus-alone control: 100.0%
HIV-1 virions; 0.1 μM, added 16 h post-infection
  Percent Infectivity of HIV-1 Virions in comparison to virus-alone control: 117.0%
HIV-1 virions; 0.1 μM, added 24 h post-infection
  Percent Infectivity of HIV-1 Virions in comparison to virus-alone control: 128.0%
HIV-1 virions; 1 μM, added 8 h post-infection
  Percent Infectivity of HIV-1 Virions in comparison to virus-alone control: 100.0%
HIV-1 virions; 1 μM, added 16 h post-infection
  Percent Infectivity of HIV-1 Virions in comparison to virus-alone control: 100.0%
HIV-1 virions; 10 μM, added 8 h post-infection
  Percent Infectivity of HIV-1 Virions in comparison to virus-alone control: 10.0%
HIV-1 virions; 10 μM, added 24 h post-infection
  Percent Infectivity of HIV-1 Virions in comparison to virus-alone control: 177.8%
CEM-SS cells [2]; exposure 2 h pre-infection
  TC50: >1000 nM
CEM-SS cells [2]; exposure 8 h pre-infection
  TC50: >1000 nM
CEM-SS cells [2]; exposure 24 h pre-infection
  TC50: >1000 nM
HIV-1RF [3]; 2 h
  EC50: 470 nM
HIV-1RF [3]; 8 h
  EC50: 200 nM
HIV-1RF [3]; 24 h
  EC50: 640 nM
HIV-1RF [3]; in words
  EC50 values after pre-treatment of cells: sub-micromolar
HIV-1RF [4]; 0 h
  EC50: 5 nM
HIV-1RF [4]; 24 h
  EC50: 10 nM
HIV-1RF [4]; 48 h
  EC50: 50 nM
HIV-1RF [4]; 72 h
  EC50: 200 nM
HIV-1RF [5]
  time of addition up to which antiviral activity (reduced p24) was seen: up to four

## COCCOCCOCCNc1ccc(S(=O)(=O)N(CC(C)C)CC(O)[C@H](Cc2ccccc2)NC(=O)O[C@H]2CO[C@H]3OCC[C@H]32)cc1 (stereo partly shown) [mPEG3-N-Darunavir]
Human hepatocytes; 0.1 uM, up to four hours
  CLint ± SEM: 48.0 ± 4.75 μL/min/10^6 cells
  t1/2: 0.482 h
Human hepatocytes; 3 uM, incubated up to one hour
  CLint ± SEM: 18.2 ± 1.47 μL/min/10^6 cells
HIV-1RF [6]
  EC50: < 0.7 nM
CYP2D6
  2D6 t1/2 ± SEM: 1.14 ± 0.315 h
[7]
  CLint ± SEM: 385 ± 0.718 μL/min/mg protein
  t1/2: 3.60 min
Human plasma proteins
  Plasma Protein Binding Fu ± SD: 0.236 ± 0.0292
Caco-2 cells
  A→B, ×10^−6: 2.52 cm/s
[8]
  Microsomal Protein Binding Fu ± SD: 0.96 ± 0.0407
CYP3A4 [9]
  3A4 t1/2 ± SEM: 1.11 ± 0.0813 h
CYP3A4 [10]; [16]
  IC50: 1200 nM
CYP3A4 [10]; [17]
  IC50: 3100 nM

## COCCOCCOCCOC(=O)N[C@@H](C(=O)NC(Cc1ccccc1)[C@@H](O)CN(Cc1ccc(-c2ccccn2)cc1)NC(=O)[C@H](NC(=O)OCCOCCOCCOC)C(C)(C)C)C(C)(C)C (stereo partly shown) [di-mPEG3-Atazanavir]
Human hepatocytes; 3 uM, incubated up to one hour
  CLint ± SEM: 3.46 ± 0.896 μL/min/10^6 cells
CYP2D6
  2D6 t1/2 ± SEM: 2.18 ± 0.808 h
[7]
  CLint ± SEM: 190 ± 18.3 μL/min/mg protein
  t1/2: 7.31 min
Human plasma proteins
  Plasma Protein Binding Fu ± SD: 0.376 ± 0.00639
HIV-1 HT/92/599
  EC50: 390 ± 60 nM
[8]
  Microsomal Protein Binding Fu ± SD: highly unbound
CYP3A4 [9]
  3A4 t1/2 ± SEM: 1.6 ± 0.457 h
CYP3A4 [10]; [16]
  IC50: > 50000 nM
CYP3A4 [10]; [17]
  IC50: 23400 nM
PBMCs
  PBMC TC50 ± SD: 146000 nM

## CCC[C@@]1(CCc2ccccc2)CC(O)=C([C@H](CC)c2cccc(NS(=O)(=O)c3ccc(C(F)(F)F)cn3)c2)C(=O)O1 [Tipranavir, reference compound]
[11]
  hepatocyte CLint at 3 μM: 0.111 ± 0.643 µL/min/1e6 cells
[12]
  fraction unbound at 2 h, 5 μM: 0.00866 ± 0.0013
[13]
  fraction unbound at 3 μM: 0.302 ± 0.0853
CEM-SS cells [14]
  CEM-SS TC50 ± SD: 30600 nM and 40700 nM
[15]
  IC50: 7.2 nM and 1.96 nM
